Assay results reported in ChEMBL document CHEMBL1201862, “PubChem BioAssay data set” (2004).
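Tested at 5 concentrations; 48 h exposure; 96-well plates; endpoints linearly interpolated, else capped at highest concentration. GI50 is the concentration that inhibits growth by half.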 Calls of active or inactive are those of the source. Rule as the data show it: active = GI50 up to about 1.1 µM and inactive = higher.

Columns and labels:
Assay in all cases: inhibition of tumour cell growth, NCI panel, 48 h
K562 = system: K562
A498 = system: A498
TK-10 = system: TK-10
HCC 2998 = system: HCC 2998
SF-539 = system: SF-539
NCI-H23 = system: NCI-H23
OVCAR-3 = system: OVCAR-3
SF-268 = system: SF-268
RPMI-8226 = system: RPMI-8226
LXFL 529 = system: LXFL 529
IGROV-1 = system: IGROV-1
HCT-15 = system: HCT-15
RXF 393 = system: RXF 393
LOX IMVI = system: LOX IMVI
COLO 205 = system: COLO 205
HT-29 = system: HT-29
786-0 = system: 786-0
OVCAR-8 = system: OVCAR-8
KM12 = system: KM12
SR = system: SR
DMS-273 = system: DMS-273
MOLT-4 = system: MOLT-4
M19-MEL = system: M19-MEL
SN12C = system: SN12C
ACHN = system: ACHN
UO-31 = system: UO-31
SNB-75 = system: SNB-75
RXF 631 = system: RXF 631
Malme-3M = system: Malme-3M
SK-MEL-28 = system: SK-MEL-28
SNB-19 = system: SNB-19
HCT-116 = system: HCT-116
EKVX = system: EKVX
CCRF-CEM = system: CCRF-CEM
UACC-62 = system: UACC-62
OVCAR-4 = system: OVCAR-4
SK-MEL-2 = system: SK-MEL-2
DLD-1 = system: DLD-1
SK-MEL-5 = system: SK-MEL-5
NCI-H226 = system: NCI-H226
UACC-257 = system: UACC-257
NCI-H460 = system: NCI-H460
SK-OV-3 = system: SK-OV-3
M14 = system: M14
DMS-114 = system: DMS-114
OVCAR-5 = system: OVCAR-5
NCI-H522 = system: NCI-H522
HL-60 = system: HL-60
U-251 = system: U-251
HOP-92 = system: HOP-92
SW-620 = system: SW-620
HOP-62 = system: HOP-62
SF-295 = system: SF-295
A549 = system: A549
XF498 = system: XF498
SNB-78 = system: SNB-78

COc1ccc(OCC(=O)O)c(C(=O)CCC(=O)O)c1
GI50 (K562): > 100 µM (inactive) | GI50 (A498): > 100 µM (inactive) | GI50 (TK-10): > 100 µM (inactive) | GI50 (HCC 2998): > 100 µM (inactive) | GI50 (SF-539): > 100 µM (inactive) | GI50 (NCI-H23): > 100 µM (inactive) | GI50 (OVCAR-3): > 10 µM (inactive) | GI50 (SF-268): > 100 µM (inactive) | GI50 (RPMI-8226): > 100 µM (inactive) | GI50 (LXFL 529): > 100 µM (inactive) | GI50 (IGROV-1): > 100 µM (inactive) | GI50 (HCT-15): > 100 µM | GI50 (RXF 393): > 100 µM (inactive) | GI50 (LOX IMVI): > 100 µM (inactive) | GI50 (COLO 205): > 100 µM (inactive) | GI50 (HT-29): > 100 µM (inactive) | GI50 (786-0): > 100 µM (inactive) | GI50 (OVCAR-8): > 100 µM (inactive) | GI50 (KM12): > 100 µM (inactive) | GI50 (SR): > 100 µM (inactive) | GI50 (DMS-273): > 100 µM (inactive) | GI50 (MOLT-4): > 100 µM (inactive) | GI50 (M19-MEL): > 100 µM (inactive) | GI50 (SN12C): > 100 µM (inactive) | GI50 (ACHN): > 100 µM (inactive) | GI50 (UO-31): > 100 µM (inactive) | GI50 (SNB-75): 71.8 µM (inactive) | GI50 (RXF 631): > 100 µM (inactive) | GI50 (Malme-3M): > 100 µM (inactive) | GI50 (SK-MEL-28): > 100 µM (inactive) | GI50 (SNB-19): > 100 µM (inactive) | GI50 (HCT-116): > 100 µM (inactive) | GI50 (EKVX): > 100 µM (inactive) | GI50 (CCRF-CEM): > 100 µM (inactive) | GI50 (UACC-62): > 10 µM (inactive) | GI50 (OVCAR-4): > 100 µM (inactive) | GI50 (SK-MEL-2): > 100 µM (inactive) | GI50 (DLD-1): > 100 µM (inactive) | GI50 (SK-MEL-5): > 100 µM (inactive) | GI50 (NCI-H226): 83.8 µM (inactive) | GI50 (UACC-257): > 100 µM (inactive) | GI50 (NCI-H460): > 100 µM (inactive) | GI50 (SK-OV-3): > 100 µM (inactive) | GI50 (M14): > 10 µM (inactive) | GI50 (DMS-114): > 100 µM (inactive) | GI50 (OVCAR-5): > 100 µM (inactive) | GI50 (NCI-H522): > 100 µM (inactive) | GI50 (HL-60): > 100 µM (inactive) | GI50 (U-251): > 100 µM (inactive) | GI50 (HOP-92): > 100 µM (inactive) | GI50 (SW-620): > 100 µM (inactive) | GI50 (HOP-62): > 10 µM (inactive) | GI50 (SF-295): > 100 µM (inactive) | GI50 (A549): > 100 µM (inactive) | GI50 (XF498): > 100 µM (inactive) | GI50 (SNB-78): > 100 µM (inactive)
